Literature values in patent US20240408074A1, “METHODS FOR THE TREATMENT AND PREVENTION OF NON-VIRAL TICK-BORNE DISEASES AND SYMPTOMS THEREOF OF” (60 DEGREES PHARMACEUTICALS LLC, priority 2023, published 2024).

Assays:
Leptospira = conditions: exposure for as little as 30 min; cited from earlier work
Babesia parasites = conditions: 2 h; formation of large vacuoles; cited from earlier work
[1] = test system: Trypanosome brucei blood stage forms; conditions: exposure for 90 minutes; cited from earlier work
[2] = test system: P. falciparum gametocytes; conditions: Example 5; single dose of primaquine combined with dihydroartemisinin/piperaquine, or dihydroartemisinin-piperaquine alone; cited from earlier work
P. falciparum [3] = conditions: 250 mg/day, cited from earlier work
[4] = test system: free-living gram-negative bacteria and free-living gram-positive bacteria; conditions: gram-negative versus gram-positive; cited from earlier work
B. rodhaini = conditions: cited from earlier work
[5] = 600 mg over three days then 200 mg weekly for up to one year; reversible, not clinically significant; cited from earlier work
P. falciparum [6] = conditions: in vivo; cited from earlier work
B. microti = conditions: one patient; prior rituximab; tafenoquine at approved malaria prevention dose as monotherapy for six weeks; cited from earlier work
Leishmania major = conditions: intracellular amastigote forms; cited from earlier work
Plasmodium vivax = conditions: 400 mg/day for three days, cited from earlier work
Plasmodium falciparum = conditions: 600 mg loading dose then 200 mg; parasite load three days after last dose; all control subjects developed parasitemia; cited from earlier work
Trypanosoma brucei = conditions: extracellular blood stage forms; cited from earlier work
[7] = immunocompromised SCID mice, single dose of 20 mg/kg

For `OO` [hydrogen peroxide], the “concentration that killed various serovars” value (Leptospira) is given as under 180 µM, the “concentration that kills Babesia parasites in vitro” value (Babesia parasites) is given as 100 µM and the “concentration that kills blood stage forms” value [1] is given as “approximately 140 microM”.
For `COc1cc(NC(C)CCCN)c2ncccc2c1` (stereo not shown) [primaquine], the “time until gametocytes non-infectious to mosquitoes at a level statistically lower than reference values” [2] is listed as “two days post-dosing”.
For `CC[C@H]1OC(=O)[C@H](C)[C@@H](O[C@H]2C[C@@](C)(OC)[C@@H](O)[C@H](C)O2)[C@H](C)[C@@H](O[C@@H]2O[C@H](C)C[C@H](N(C)C)[C@H]2O)[C@](C)(O)C[C@@H](C)CN(C)[C@H](C)[C@@H](O)[C@]1(C)O` [Azithromycin], the “Protective Efficacy (%) Relative to Placebo, PF/Non-immune or Malaria-naïve” value (P. falciparum [3]; non-immune or malaria-naïve (Taylor)) is listed as 72% (Taylor) and the “Protective Efficacy (%) Relative to Placebo, Pf/Semi-Immune” value (P. falciparum [3]; semi-immune (Anderson)) is listed as 83% (Anderson).
For `COc1cc(C)c2c(Oc3cccc(C(F)(F)F)c3)c(OC)cc(NC(C)CCCN)c2n1` (stereo not shown) [tafenoquine, N(4)-[2,6-Dimethoxy-4-methyl-5-[3-(trifluoromethyl)phenoxy]quinolin-8-yl]pentane-1,4-diamine], the “activity against free-living bacteria” value [4] is given as “much less active against free-living gram-negative bacteria than free-living gram-positive bacteria”, the parasitemia (B. rodhaini; Balb/c (immunocompetent) mice, single dose of 20 mg/kg) is given as “cleared parasitemia” and the survival (B. rodhaini; Balb/c (immunocompetent) mice, single dose of 20 mg/kg, infection uniformly lethal in untreated animals) is given as 100%. For the same compound, the death (B. rodhaini; [7]) was “delayed not prevent”, the parasitemia and relapses (B. rodhaini; [7]) was “cleared initial parasitemia but did not prevent relapses” and the “vacuole formation in B. rodhaini blood stages” value (B. rodhaini; mice, single dose of 20 mg/kg) was “induces the formation of large vacuoles”. The “antioxidant enzymes in B. rodhaini” value (B. rodhaini; mice, single dose treatment) was “upregulated”, the “clearance and cure of Babesia” value (B. rodhaini; one and three doses, immunocompromised mice and dogs) was “sufficient to clear and cure Babesia” and the “specific adverse events with increased risk” value [5] was “gastrointestinal effects [mild to moderate] and cornea verticillata”. The “activity against the blood stages of P. falciparum” value (P. falciparum [6]) was “quite effective”, the “outcome of treatment in the patient” value (B. microti) was “cured” and the potency of killing (Leishmania major) was under 4 µM. The “day by which all patients cleared blood stage parasites” value (Plasmodium vivax; monotherapy) was at most 8 days, the “relapses during the follow up period” value (Plasmodium vivax; patients for whom data was available) was “no relapses” and the “subjects who developed blood stage parasitemia” value (Plasmodium falciparum) was “none”. For the same compound, the potency of killing (Trypanosoma brucei) was under 4 µM.
